Results as given in the NIST ThermoML archive (doi:10.1021/acs.jced.7b00429).
Numbers after ± are expanded uncertainties.

Test: xn = mol fraction of the nth substance listed
Conditions: 100 kPa, Liquid; for viscosity: Falling or rolling sphere viscometry; for speed of sound: Frequency=3 MHz, Single path-length method; for mass density: Vibrating tube method

## CCn1cc[n+](C)c1.O=S(=O)([O-])C(F)(F)F [1-ethyl-3-methylimidazolium trifluoromethanesulfonate] + C[S+](C)[O-]
298.15 K, x1 = 0.1068
  viscosity: 3.65 ± 1.1 mPa·s
  speed of sound: 1488 ± 10 m/s
  mass density: 1168.75 ± 2 kg/m3
298.15 K, x1 = 0.2015
  viscosity: 5.35 ± 1.6 mPa·s
  speed of sound: 1477.1 ± 10 m/s
  mass density: 1216.25 ± 2.1 kg/m3
298.15 K, x1 = 0.3077
  viscosity: 7.89 ± 2.4 mPa·s
  speed of sound: 1468.6 ± 10 m/s
  mass density: 1256.63 ± 2.1 kg/m3
298.15 K, x1 = 0.4023
  viscosity: 11.82 ± 3.6 mPa·s
  speed of sound: 1462.5 ± 10 m/s
  mass density: 1284.76 ± 2.1 kg/m3
298.15 K, x1 = 0.4933
  viscosity: 16.26 ± 4.9 mPa·s
  speed of sound: 1456.5 ± 10 m/s
  mass density: 1306.53 ± 2.2 kg/m3
298.15 K, x1 = 0.6022
  viscosity: 21.05 ± 6.3 mPa·s
  speed of sound: 1453 ± 10 m/s
  mass density: 1328.03 ± 2.2 kg/m3
298.15 K, x1 = 0.6993
  viscosity: 26.12 ± 7.8 mPa·s
  speed of sound: 1449.9 ± 10 m/s
  mass density: 1344 ± 2.3 kg/m3
298.15 K, x1 = 0.7929
  viscosity: 31.96 ± 9.6 mPa·s
  speed of sound: 1445.6 ± 10 m/s
  mass density: 1357.15 ± 2.4 kg/m3
298.15 K, x1 = 0.9008
  viscosity: 38.88 ± 12 mPa·s
  speed of sound: 1441.2 ± 10 m/s
  mass density: 1370.28 ± 2.5 kg/m3
298.15 K, x1 = 1
  viscosity: 45.67 ± 14 mPa·s
  speed of sound: 1436 ± 10 m/s
  mass density: 1379.91 ± 2.5 kg/m3
303.15 K, x1 = 0.1068
  viscosity: 3.26 ± 0.98 mPa·s
  speed of sound: 1472.7 ± 10 m/s
  mass density: 1164 ± 2 kg/m3
303.15 K, x1 = 0.2015
  viscosity: 4.72 ± 1.4 mPa·s
  speed of sound: 1462.7 ± 10 m/s
  mass density: 1211.78 ± 2.1 kg/m3
303.15 K, x1 = 0.3077
  viscosity: 6.9 ± 2.1 mPa·s
  speed of sound: 1454.9 ± 10 m/s
  mass density: 1252.35 ± 2.1 kg/m3
303.15 K, x1 = 0.4023
  viscosity: 10.2 ± 3.1 mPa·s
  speed of sound: 1449.4 ± 10 m/s
  mass density: 1280.52 ± 2.1 kg/m3
303.15 K, x1 = 0.4933
  viscosity: 13.93 ± 4.2 mPa·s
  speed of sound: 1443.8 ± 10 m/s
  mass density: 1302.34 ± 2.2 kg/m3
303.15 K, x1 = 0.6022
  viscosity: 17.95 ± 5.4 mPa·s
  speed of sound: 1440.6 ± 10 m/s
  mass density: 1323.93 ± 2.2 kg/m3
303.15 K, x1 = 0.6993
  viscosity: 22.18 ± 6.7 mPa·s
  speed of sound: 1437.8 ± 10 m/s
  mass density: 1339.92 ± 2.3 kg/m3
303.15 K, x1 = 0.7929
  viscosity: 27.03 ± 8.1 mPa·s
  speed of sound: 1433.9 ± 10 m/s
  mass density: 1353.08 ± 2.4 kg/m3
303.15 K, x1 = 0.9008
  viscosity: 32.74 ± 9.8 mPa·s
  speed of sound: 1430 ± 10 m/s
  mass density: 1366.19 ± 2.4 kg/m3
303.15 K, x1 = 1
  viscosity: 38.31 ± 12 mPa·s
  speed of sound: 1425.4 ± 10 m/s
  mass density: 1375.71 ± 2.5 kg/m3
308.15 K, x1 = 0.1068
  viscosity: 2.94 ± 0.88 mPa·s
  speed of sound: 1457.5 ± 10 m/s
  mass density: 1159.28 ± 2 kg/m3
308.15 K, x1 = 0.2015
  viscosity: 4.2 ± 1.3 mPa·s
  speed of sound: 1448.3 ± 10 m/s
  mass density: 1207.5 ± 2.1 kg/m3
308.15 K, x1 = 0.3077
  viscosity: 6.08 ± 1.8 mPa·s
  speed of sound: 1441.2 ± 10 m/s
  mass density: 1248.17 ± 2.1 kg/m3
308.15 K, x1 = 0.4023
  viscosity: 8.91 ± 2.7 mPa·s
  speed of sound: 1436.4 ± 10 m/s
  mass density: 1276.4 ± 2.1 kg/m3
308.15 K, x1 = 0.4933
  viscosity: 12.06 ± 3.6 mPa·s
  speed of sound: 1431.3 ± 10 m/s
  mass density: 1298.26 ± 2.2 kg/m3
308.15 K, x1 = 0.6022
  viscosity: 15.48 ± 4.6 mPa·s
  speed of sound: 1428.4 ± 10 m/s
  mass density: 1319.96 ± 2.2 kg/m3
308.15 K, x1 = 0.6993
  viscosity: 19.05 ± 5.7 mPa·s
  speed of sound: 1425.8 ± 10 m/s
  mass density: 1335.83 ± 2.3 kg/m3
308.15 K, x1 = 0.7929
  viscosity: 23.08 ± 6.9 mPa·s
  speed of sound: 1422.3 ± 10 m/s
  mass density: 1349.06 ± 2.4 kg/m3
308.15 K, x1 = 0.9008
  viscosity: 27.81 ± 8.3 mPa·s
  speed of sound: 1418.7 ± 10 m/s
  mass density: 1362.09 ± 2.4 kg/m3
308.15 K, x1 = 1
  viscosity: 32.38 ± 9.7 mPa·s
  speed of sound: 1414.3 ± 10 m/s
  mass density: 1371.51 ± 2.5 kg/m3
313.15 K, x1 = 0.1068
  viscosity: 2.66 ± 0.8 mPa·s
  speed of sound: 1442.4 ± 10 m/s
  mass density: 1154.49 ± 2 kg/m3
313.15 K, x1 = 0.2015
  viscosity: 3.76 ± 1.1 mPa·s
  speed of sound: 1434 ± 10 m/s
  mass density: 1203.23 ± 2.1 kg/m3
313.15 K, x1 = 0.3077
  viscosity: 5.42 ± 1.6 mPa·s
  speed of sound: 1427.7 ± 10 m/s
  mass density: 1243.91 ± 2.1 kg/m3
313.15 K, x1 = 0.4023
  viscosity: 7.85 ± 2.4 mPa·s
  speed of sound: 1423.5 ± 10 m/s
  mass density: 1272.21 ± 2.1 kg/m3
313.15 K, x1 = 0.4933
  viscosity: 10.52 ± 3.2 mPa·s
  speed of sound: 1418.8 ± 10 m/s
  mass density: 1294.19 ± 2.2 kg/m3
313.15 K, x1 = 0.6022
  viscosity: 13.47 ± 4 mPa·s
  speed of sound: 1416.5 ± 10 m/s
  mass density: 1315.98 ± 2.2 kg/m3
313.15 K, x1 = 0.6993
  viscosity: 16.52 ± 5 mPa·s
  speed of sound: 1414 ± 10 m/s
  mass density: 1331.89 ± 2.3 kg/m3
313.15 K, x1 = 0.7929
  viscosity: 19.91 ± 6 mPa·s
  speed of sound: 1410.8 ± 10 m/s
  mass density: 1345.04 ± 2.3 kg/m3
313.15 K, x1 = 0.9008
  viscosity: 23.88 ± 7.2 mPa·s
  speed of sound: 1407.4 ± 10 m/s
  mass density: 1358.06 ± 2.4 kg/m3
313.15 K, x1 = 1
  viscosity: 27.68 ± 8.3 mPa·s
  speed of sound: 1403 ± 10 m/s
  mass density: 1367.36 ± 2.5 kg/m3
318.15 K, x1 = 0.1068
  viscosity: 2.42 ± 0.73 mPa·s
  speed of sound: 1425.5 ± 10 m/s
  mass density: 1149.74 ± 2 kg/m3
318.15 K, x1 = 0.2015
  viscosity: 3.39 ± 1 mPa·s
  speed of sound: 1419.8 ± 10 m/s
  mass density: 1198.95 ± 2.1 kg/m3
318.15 K, x1 = 0.3077
  viscosity: 4.85 ± 1.5 mPa·s
  speed of sound: 1414.3 ± 10 m/s
  mass density: 1239.74 ± 2.1 kg/m3
318.15 K, x1 = 0.4023
  viscosity: 6.96 ± 2.1 mPa·s
  speed of sound: 1410.8 ± 10 m/s
  mass density: 1268.06 ± 2.1 kg/m3
318.15 K, x1 = 0.4933
  viscosity: 9.26 ± 2.8 mPa·s
  speed of sound: 1406.5 ± 10 m/s
  mass density: 1290.23 ± 2.2 kg/m3
318.15 K, x1 = 0.6022
  viscosity: 11.82 ± 3.6 mPa·s
  speed of sound: 1404.5 ± 10 m/s
  mass density: 1312.02 ± 2.2 kg/m3
318.15 K, x1 = 0.6993
  viscosity: 14.45 ± 4.3 mPa·s
  speed of sound: 1401.9 ± 10 m/s
  mass density: 1327.93 ± 2.3 kg/m3
318.15 K, x1 = 0.7929
  viscosity: 17.32 ± 5.2 mPa·s
  speed of sound: 1399.5 ± 10 m/s
  mass density: 1341 ± 2.3 kg/m3
318.15 K, x1 = 0.9008
  viscosity: 20.68 ± 6.2 mPa·s
  speed of sound: 1396.5 ± 10 m/s
  mass density: 1353.95 ± 2.4 kg/m3
318.15 K, x1 = 1
  viscosity: 23.86 ± 7.2 mPa·s
  speed of sound: 1392.7 ± 10 m/s
  mass density: 1363.21 ± 2.5 kg/m3
323.15 K, x1 = 0.1068
  viscosity: 2.22 ± 0.67 mPa·s
  speed of sound: 1410.4 ± 10 m/s
  mass density: 1144.99 ± 2 kg/m3
323.15 K, x1 = 0.2015
  viscosity: 3.08 ± 0.92 mPa·s
  speed of sound: 1405.7 ± 10 m/s
  mass density: 1194.68 ± 2.1 kg/m3
323.15 K, x1 = 0.3077
  viscosity: 4.37 ± 1.3 mPa·s
  speed of sound: 1401 ± 10 m/s
  mass density: 1235.66 ± 2.1 kg/m3
323.15 K, x1 = 0.4023
  viscosity: 6.22 ± 1.9 mPa·s
  speed of sound: 1398.1 ± 10 m/s
  mass density: 1263.96 ± 2.1 kg/m3
323.15 K, x1 = 0.4933
  viscosity: 8.23 ± 2.5 mPa·s
  speed of sound: 1394.3 ± 10 m/s
  mass density: 1286.19 ± 2.2 kg/m3
323.15 K, x1 = 0.6022
  viscosity: 10.45 ± 3.1 mPa·s
  speed of sound: 1392.7 ± 10 m/s
  mass density: 1307.97 ± 2.2 kg/m3
323.15 K, x1 = 0.6993
  viscosity: 12.72 ± 3.8 mPa·s
  speed of sound: 1390.7 ± 10 m/s
  mass density: 1323.95 ± 2.3 kg/m3
323.15 K, x1 = 0.7929
  viscosity: 15.19 ± 4.6 mPa·s
  speed of sound: 1388.2 ± 10 m/s
  mass density: 1337.02 ± 2.3 kg/m3
323.15 K, x1 = 0.9008
  viscosity: 18.05 ± 5.4 mPa·s
  speed of sound: 1385.5 ± 10 m/s
  mass density: 1349.9 ± 2.4 kg/m3
323.15 K, x1 = 1
  viscosity: 20.75 ± 6.2 mPa·s
  speed of sound: 1381.7 ± 10 m/s
  mass density: 1359.07 ± 2.5 kg/m3
